Here are results for six molecules from patent publication US12098116B2, “Crystalline prostacyclin (IP) receptor agonist and uses thereof” (United Therapeutics Corporation, priority 2022, dated 2024).

The nature of data set [1]: Dynamic Vapour Sorption (DVS). The class given is physicochemical. The protocol:
Approximately, 10 mg of sample was placed into a mesh vapor sorption balance pan and loaded into a DVS-1/DVS Intrinsic/DVS Advantage dynamic vapor sorption balance by Surface Measurement Systems. The sample was subjected to a ramping profile from 40-90% relative humidity (RH) at 10% increments, maintaining the sample at each step until a stable weight had been achieved (dm/dt 0.004%, minimum step length 30 min, maximum step length 500 min) at 25° C. After completion of the sorption cycle, the sample was dried using the same procedure to 0% RH and then a second sorption cycle back to 40% RH. Two cycles were performed. The weight change during the sorption/desorption cycles were plotted, allowing for the hygroscopic nature of the sample to be determined.

In a further data set the test system is pulmonary artery. The note with it: head-to-head in vitro; cited from earlier work.
The conditions of data set [2]: healthy volunteer population, cited from earlier work.
For data set [3], the system named is human pulmonary artery smooth muscle cell (PASMC). Conditions: head-to-head in vitro; cited from earlier work.
Data set [4] can be described thus: Solvent solubility study of ralinepag. Type of data set: physicochemical. The note with it: thermodynamic from solid. The protocol:
To prepare amorphous material for solubility testing, 330 mg of ralinepag was dissolved in 33 mL tert-butanol (with gentle heating applied via a heatgun) before being split evenly into 33 vials (˜10 mg of ralinepag per sample). […] One vial of solid was analyzed by XRPD to confirm that ralinepag had been rendered amorphous. However, as in Example 2g, a poorly crystalline Pattern 2 was observed. 32 solvents and solvent systems were added to 32×10 mg of lyophilized ralinepag in 50 μL aliquots for the first 300 μL or until complete dissolution was noted. If complete dissolution was not observed, 100 μL aliquots were added thereafter up to 1 mL total solvent. Between each addition, the mixture was manually shaken for a few seconds and if complete dissolution was not apparent, the mixture was heated to about 40° C. and checked again. Where complete dissolution occurred, the solvent was allowed to evaporate at ambient temperature. Where complete dissolution was not observed, the solids were isolated via centrifuge filtration. Recovered solids were analyzed by XRPD.

Another data set has as its target IP receptor (Homo sapiens, UniProt P43119). Conditions: head-to-head in vitro; cited from earlier work.
Data set [5] is described as follows: Solid form conversion on drying or heating, followed by XRPD. Type of data set: physicochemical.
For data set [6] the following is noted: cited from earlier work.
For data set [7] the following is noted: cited from earlier work. The source holds these as a separate data set.

Converted amounts (≈) assume the structure as drawn. Where two headings read alike, the source gives them in different places.

Sequence of IP receptor (P43119 whole entry): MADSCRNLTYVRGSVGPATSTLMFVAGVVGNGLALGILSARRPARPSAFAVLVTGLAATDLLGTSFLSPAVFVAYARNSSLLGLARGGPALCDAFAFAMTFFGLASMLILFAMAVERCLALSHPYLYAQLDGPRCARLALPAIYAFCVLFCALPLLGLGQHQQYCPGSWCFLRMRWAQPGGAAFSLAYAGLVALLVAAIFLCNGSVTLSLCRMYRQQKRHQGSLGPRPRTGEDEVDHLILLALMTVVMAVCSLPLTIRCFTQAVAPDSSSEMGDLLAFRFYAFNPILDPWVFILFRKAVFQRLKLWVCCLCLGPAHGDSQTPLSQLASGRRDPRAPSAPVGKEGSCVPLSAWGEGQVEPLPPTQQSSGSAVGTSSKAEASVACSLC

Take `O=C(O)COC[C@H]1CC[C@H](COC(=O)N(c2ccccc2)c2ccc(Cl)cc2)CC1` [Form 1]: in [1] (DVS, 25° C.), the Hygroscopic nature result is “non-hygroscopic”. For the same molecule, the “XRPD of the solid after DVS analysis” value in data set [1] (after DVS between 0% and 90% RH) is listed as “unchanged”. For the same molecule, the Reversible water uptake in data set [1] (between 0% and 90% RH, 25° C.) is on record as 0.1 % (w/w).

`O=C(O)COC[C@H]1CC[C@H](COC(=O)N(c2ccccc2)c2ccc(Cl)cc2)CC1` [ralinepag, 2-([(1r,4r)-4-(((4-chlorophenyl)(phenyl)carbamoyloxy)methyl)-cyclohexyl]methoxy)acetic acid]: the “Pulmonary artery vasodilation compared with selexipag” value in the data set with pulmonary artery is on record as “improved”. Also, the “Variability in plasma concentrations between doses (peak:trough ratio)” value in data set [2] (compared with selexipag) is on record as “less variability”. In addition, the “t1/2 compared with selexipag (and its active metabolite MRE-269)” value in data set [2] (single- and multiple-dose studies) was “longer t1/2 than selexipag”. Besides, the “Inhibition of human PASMC proliferation compared with selexipag” value in [3] is “better inhibition”. Moreover, the solubility in [4] (aqueous with cosolvent or surfactant or cyclodextrin, solvent ethanol/water (48:52% v/v), read-out: Estimated Solubility) was < 10 mg/mL; in data set [4] (organic solvent or mixture, in 29 of the 32 solvent systems, poorly crystalline ralinepag, read-out: Solubility, summary of the screen), ≥ 10 mg/mL; in [4] (organic solvent or mixture, solvent 1,1-dimethoxymethane, heated to 40° C., lyophilized poorly crystalline material, read-out: Estimated Solubility) it was 50 mg/mL (≈ 116 mM); in data set [4] (organic solvent or mixture, solvent 1,2-dichloroethene, heated to 40° C., read-out: Estimated Solubility), 200 mg/mL (≈ 463 mM); in [4] (organic solvent or mixture, solvent 1,4-dioxane, heated to 40° C., read-out: Estimated Solubility), 200 mg/mL (≈ 463 mM); in data set [4] (organic solvent or mixture, solvent 1-butanol, heated to 40° C., read-out: Estimated Solubility), 50 mg/mL (≈ 116 mM). Further, the solubility in data set [4] (organic solvent or mixture, solvent 1-propanol, heated to 40° C., read-out: Estimated Solubility) was 50 mg/mL (≈ 116 mM); in [4] (organic solvent or mixture, solvent 2-ethoxyethanol, heated to 40° C., read-out: Estimated Solubility) it was 200 mg/mL (≈ 463 mM); in data set [4] (organic solvent or mixture, solvent 2-methyl-1-propanol, heated to 40° C., read-out: Estimated Solubility) it was 50 mg/mL (≈ 116 mM); in [4] (organic solvent or mixture, solvent 2-methyltetrahydrofuran, read-out: Estimated Solubility), 200 mg/mL (≈ 463 mM); in [4] (organic solvent or mixture, solvent 2-propanol, heated to 40° C., read-out: Estimated Solubility), 50 mg/mL (≈ 116 mM); in data set [4] (organic solvent or mixture, solvent N,N-dimethylacetamide, read-out: Estimated Solubility), 200 mg/mL (≈ 463 mM). Also, the solubility was 200 mg/mL (≈ 463 mM) in data set [4] (organic solvent or mixture, solvent N,N-dimethylformamide, read-out: Estimated Solubility); 200 mg/mL (≈ 463 mM) in [4] (organic solvent or mixture, solvent N-methyl-2-pyrrolidone, read-out: Estimated Solubility); 200 mg/mL (≈ 463 mM) in data set [4] (organic solvent or mixture, solvent acetone, read-out: Estimated Solubility); 40 mg/mL (≈ 92.6 mM) in data set [4] (organic solvent or mixture, solvent acetonitrile, heated to 40° C., read-out: Estimated Solubility); 200 mg/mL (≈ 463 mM) in data set [4] (organic solvent or mixture, solvent anisole, read-out: Estimated Solubility); 200 mg/mL (≈ 463 mM) in [4] (organic solvent or mixture, solvent benzyl alcohol, read-out: Estimated Solubility). Further, the solubility was 50 mg/mL (≈ 116 mM) in [4] (organic solvent or mixture, solvent butyl acetate, heated to 40° C., read-out: Estimated Solubility); 200 mg/mL (≈ 463 mM) in [4] (organic solvent or mixture, solvent dimethylsulfoxide, heated to 40° C., read-out: Estimated Solubility); 100 mg/mL (≈ 232 mM) in data set [4] (organic solvent or mixture, solvent ethanol/water (93:7% v/v), heated to 40° C., read-out: Estimated Solubility); 100 mg/mL (≈ 232 mM) in data set [4] (organic solvent or mixture, solvent ethanol/water (98.5:1.5% v/v), read-out: Estimated Solubility); 100 mg/mL (≈ 232 mM) in data set [4] (organic solvent or mixture, solvent ethanol, heated to 40° C., read-out: Estimated Solubility); 100 mg/mL (≈ 232 mM) in [4] (organic solvent or mixture, solvent ethyl acetate, heated to 40° C., read-out: Estimated Solubility). The solubility in data set [4] (organic solvent or mixture, solvent heptane, read-out: Estimated Solubility) is < 10 mg/mL; in [4] (organic solvent or mixture, solvent isopropyl acetate, heated to 40° C., read-out: Estimated Solubility), 66.7 mg/mL (≈ 154 mM); in data set [4] (organic solvent or mixture, solvent methanol, heated to 40° C., read-out: Estimated Solubility), 200 mg/mL (≈ 463 mM); in [4] (organic solvent or mixture, solvent methylethyl ketone, heated to 40° C., read-out: Estimated Solubility), 200 mg/mL (≈ 463 mM); in [4] (organic solvent or mixture, solvent methylisobutyl ketone, heated to 40° C., read-out: Estimated Solubility), 100 mg/mL (≈ 232 mM); in data set [4] (organic solvent or mixture, solvent tert-butylmethyl ether, heated to 40° C., read-out: Estimated Solubility) it was 25 mg/mL (≈ 57.9 mM). Moreover, the solubility in [4] (organic solvent or mixture, solvent tetrahydrofuran, heated to 40° C., read-out: Estimated Solubility) was 200 mg/mL (≈ 463 mM); in data set [4] (organic solvent or mixture, solvent toluene, heated to 40° C., read-out: Estimated Solubility), 14.3 mg/mL (≈ 33.1 mM); in data set [4] (solvent water, read-out: Estimated Solubility), < 10 mg/mL. At IP receptor, the “Increase of cellular cAMP levels compared with selexipag” value is “more potent and efficacious than selexipag”.

`O=C(O)COC[C@H]1CC[C@H](COC(=O)N(c2ccccc2)c2ccc(Cl)cc2)CC1` [Pattern 2]: the “Solid form after drying (XRPD)” value in data set [5] (dried under vacuum at 40° C. for approximately 21 h) is recorded as “retained”. In data set [5] (on heating), the “Solid form conversion on heating” value is listed as “converts to Form 1”.

For `O=C(O)COC[C@H]1CC[C@H](COC(=O)N(c2ccccc2)c2ccc(Cl)cc2)CC1` [Pattern 4], the “Solid form conversion upon drying” value in data set [5] (made from DMA/water) is “converts to a predominantly amorphous form with some Form 1 peaks present”; in [5] (made from NMP/water, upon drying (even with air drying)) it was “converts to Form 1”.

With `CCCCC[C@H](O)/C=C/[C@@H]1[C@H]2C/C(=C/CCCC(=O)O)O[C@H]2C[C@H]1O` [epoprostenol], in data set [6], the “Stability at room temperature” value was “unstable at room temperature”.

With `CC(C)N(CCCCOCC(=O)NS(C)(=O)=O)c1cnc(-c2ccccc2)c(-c2ccccc2)n1` [Selexipag], the “Effect on PVR” value in data set [7] (after 17 weeks of treatment) is listed as “reduce PVR”. In addition, the “Reduction in a composite morbidity and mortality endpoint” value in data set [7] (in vivo) is reported as 40%.

The term solubility denotes the dissolved amount per volume that the medium holds.
